Measured values: US12539285B2, “Therapeutic agent for hypertrophic cardiomyopathy” (JUNTENDO EDUCATIONAL FOUNDATION, priority 2021, dated 2026)

Legend:
[1] = test system: myocardial cells derived from iPS cells of hypertrophic cardiomyopathy (HCM) patient; experiment: Fluorescent calcium imaging, peak width of Ca-imaging waveform; type: cell-based; settings: 10 μM and 30 μM 5-aminolevulinic acid added from 7th day after seeding; FIG. 4
Text: The determinant of the myocardial relaxation rate is the dissociation rate of myosin and actin, and one of factors of determining the dissociation rate is the Ca^2+ uptake function of ATPase present in the longitudinal tubules of sarcoplasmic reticulum. Accordingly, using the above-mentioned myocardial cells derived from iPS cells of hypertrophic cardiomyopathy (HCM) patient, the peak width of a Ca-imaging waveform, which reflects the disappearance rate of Ca^2+ in myocardial cells (i.e., the uptake rate of Ca^2+ into the sarcoplasmic reticulum) by addition of 5-aminolevulinic acid, was measured. […]
As the measurement apparatus for high content analysis, CQ1 Image Cytometer of Yokogawa Electric Corporation was used, and the measurement was performed with excitation light of 488 nm and fluorescence at 500 to 550 nm (spinning-disk confocal unit with microlens array). […]
Over the entire screen of the obtained image data, the fluorescence intensity was digitized over time to obtain fluorescence waveforms. […] The parameters calculated from a waveform were the line width (sec) at each of 10%, 20%, 30%, 50%, 70%, and 90% of the waveform height, the length (sec) of interval between each wave, and the fluorescence intensity (ΔF).

[2] = test system: myocardial cells derived from iPS cells of hypertrophic cardiomyopathy patient (MYH7 R403Q); experiment: Myocardial relaxation rate (SONY SI8000) in HCM patient iPS-derived myocardial cells; type: cell-based; settings: ALA/SFC 10 μM/5 μM, 30 μM/1 μM, 100 μM/50 μM; measured Day 20 and Day 26 vs before administration (Day 15); FIG. 1
Description: (§1) Myocardial cells differentiated from iPS cells derived from hypertrophic cardiomyopathy patient were purchased, seeded, and cultured and were then administered with 5-aminolevulinic acid and sodium ferrous citrate (ALA/SFC). As myocardial cells, […] Cardiomyocytes (MYH7 R403Q) (C1081, cat. #556-34781) (FUJIFILM Cellular Dynamics, Inc.) was used. As a control, myocardial cells derived from iPS cells of normal subject (Cell Cardiomyocytes (Control) (C1056, cat. #551-33491) (FUJIFILM Cellular Dynamics, Inc.) was used. As the culture medium for cell seeding, (iCell Plating medium (M1001, cat. #550-33581) (FUJIFILM Cellular Dynamics, Inc.) was used.
(§2) In the cell culture, as the culture medium, iCell Maintenance medium (M1003, cat. #557-3359I) (FUJIFILM Cellular Dynamics, Inc.) was used.
(§3) • Day 1: Cell seeding (myocardial cells derived from iPS cells of hypertrophic cardiomyopathy patient, myocardial cells derived from iPS cells of normal subject). The cells were seeded at 3×10^4 per well in a 96-well plastic plate (nunc); • Day 15: The relaxation rate before administration was measured using SONY SI8000, and ALA/SFC were then administered on the same day at the following doses. The doses were four groups of 0 μM/0 μM, 10 μM/5 μM, 30 μM/1 μM, and 100 μM/50 μM of ALA/SFC for each of the disease myocardial cells and the normal myocardial cells. […]

[3] = test system: myocardial cells derived from iPS cells of normal subject; experiment: Myocardial relaxation rate (SONY SI8000) in normal myocardial cells; type: cell-based; settings: ALA/SFC 10 μM/5 μM, 30 μM/1 μM, 100 μM/50 μM; measured Day 20 and Day 26 vs before administration (Day 15); FIG. 2
Description: as §1, §2, §3

[4] = test system: zebrafish cardiomyopathy model (myocardial troponin T knockdown (tnnt2a KD)); experiment: Zebrafish cardiomyopathy model (tnnt2a KD), peak filling rate by heart imaging; type: in vivo; settings: ALA/SFC 100 μM/50 μM in culture solution, DAY 0-2, imaging DAY 3; FIG. 5
Text: A synthetic nucleic acid, morpholino antisense oligo (MO), which inhibits translation of zebrafish myocardial troponin T (tnnt2a), was used. The target sequence of tnnt2a-MO used for producing this cardiomyopathy model was 5′-[…]-3′ (SEQ ID NO: 1), and the target sequence of standard control MO (Control-MO) used as a negative control was 5′-[…]-3′ (SEQ ID NO: 2). Both MOs used were produced by Certified GeneTool, Inc. Standard control MO (Lis-MO) having the 3′ terminal labeled with a red fluorescent material, Lissamine, was used as an internal standard substance. An MO powder diluted with nuclease free water to 1 mM was used as a stock solution, and the final concentrations of the tnnt2a-MO and Control-MO were adjusted to 1.2 μM and the final concentration of Lis-MO was adjusted to 50 μM, using nuclease free water as a working solution for microinjection. […]
The acquired moving image was converted into sequence images, and the ventricular outline in each frame was recorded as Region of Interest (ROT). Subsequently, the major and minor axes of an ellipse approximating to the ROI on each sequence image were measured by Fit-to-Ellipse algorithm, the volume of the spheroid of each sequence image was calculated as a ventricular volume, and the peak filling rate (PFR: diastolic function) was measured from the rate of change in the obtained ventricular volume.

## NCC(=O)CCC(=O)O [5-aminolevulinic acid]
[1]
  peak width at 50% of the height of a Ca-imaging waveform (uptake of Ca2+ into sarcoplasmic reticulum): obviously reduced
[2]
  relaxation rate of myocardial cells in hypertrophic cardiomyopathy: noticeably increased
[3]
  relaxation rate in normal myocardial cells: did not increase
[4]
  left ventricular diastolic function (peak filling rate, PFR): improved
